# Experimental data as given in the Kinase Knowledgebase extract (Sharma et al. 2016).
# Target: EGFR (human) (UniProt P00533)
# Sequence (P00533 whole entry, looked up): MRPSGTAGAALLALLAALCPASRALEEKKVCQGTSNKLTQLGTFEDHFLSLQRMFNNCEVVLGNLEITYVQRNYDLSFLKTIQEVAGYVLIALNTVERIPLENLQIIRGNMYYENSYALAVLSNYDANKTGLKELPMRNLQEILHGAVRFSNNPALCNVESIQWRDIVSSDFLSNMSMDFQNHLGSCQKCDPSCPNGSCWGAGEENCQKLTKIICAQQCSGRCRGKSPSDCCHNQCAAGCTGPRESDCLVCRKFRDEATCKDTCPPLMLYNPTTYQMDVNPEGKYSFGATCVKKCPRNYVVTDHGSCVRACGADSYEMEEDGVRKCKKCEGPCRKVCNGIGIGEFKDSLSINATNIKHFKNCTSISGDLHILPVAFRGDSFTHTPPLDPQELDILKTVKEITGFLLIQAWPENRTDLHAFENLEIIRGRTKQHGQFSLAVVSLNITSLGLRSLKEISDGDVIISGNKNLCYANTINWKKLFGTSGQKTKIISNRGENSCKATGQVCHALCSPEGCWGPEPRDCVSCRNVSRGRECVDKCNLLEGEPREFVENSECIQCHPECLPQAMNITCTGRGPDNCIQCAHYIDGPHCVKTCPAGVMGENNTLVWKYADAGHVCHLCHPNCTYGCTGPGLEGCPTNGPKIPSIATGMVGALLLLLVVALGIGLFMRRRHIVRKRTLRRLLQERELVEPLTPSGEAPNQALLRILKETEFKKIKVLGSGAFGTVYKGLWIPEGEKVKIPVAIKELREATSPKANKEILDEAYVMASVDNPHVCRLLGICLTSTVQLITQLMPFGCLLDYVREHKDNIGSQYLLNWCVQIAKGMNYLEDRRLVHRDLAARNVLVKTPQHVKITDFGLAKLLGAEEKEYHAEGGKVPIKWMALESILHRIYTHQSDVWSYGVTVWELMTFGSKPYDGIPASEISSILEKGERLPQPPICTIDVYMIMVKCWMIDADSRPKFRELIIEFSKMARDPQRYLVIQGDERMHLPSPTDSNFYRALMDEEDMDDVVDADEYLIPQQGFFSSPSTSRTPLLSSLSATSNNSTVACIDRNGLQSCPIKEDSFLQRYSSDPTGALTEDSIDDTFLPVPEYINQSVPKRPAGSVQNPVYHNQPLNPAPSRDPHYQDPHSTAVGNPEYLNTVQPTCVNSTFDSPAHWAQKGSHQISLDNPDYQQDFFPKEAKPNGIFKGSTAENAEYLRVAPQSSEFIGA
row,SMILES,IC50 [nM]
1,CN1CCc2ccc(Nc3nccc(-c4sc(CS(=O)(=O)C(C)(C)C)nc4-c4cccc(NC(=O)c5c(F)cccc5F)c4)n3)cc2C1,< 100
2,O=C(Nc1cccc(-c2ncsc2-c2ccnc(Nc3ccc4c(c3)CNCC4)n2)c1)c1c(F)cccc1F,< 100
3,O=C(Cc1cccs1)Nc1cccc(-c2ncsc2-c2ccnc(Nc3ccc4c(c3)NC(=O)CO4)n2)c1,< 100
4,Nc1nc(-c2cccc(NC(=O)c3cc(F)ccc3F)c2)c(-c2ccnc(Nc3cccc(-c4cnco4)c3)n2)s1,< 100
5,Nc1nc(-c2cccc(OCc3ccccc3)c2)c(-c2ccnc(Nc3ccc4c(c3)CNCC4)n2)s1,< 100
6,CS(=O)(=O)CCN1CCN(c2ccc(Nc3nccc(-c4scnc4-c4cccc(NC(=O)c5c(F)cccc5F)c4)n3)cc2F)CC1,< 100
7,Cc1nc(-c2cccc(NC(=O)c3cc(F)ccc3F)c2)c(-c2ccnc(Nc3ccc(OCCN(C)C)c(Cl)c3)n2)o1,< 100
8,CN(C)CCOc1ccc(Nc2nccc(-c3sc(-c4ccc(O)cc4)nc3-c3cccc(NC(=O)c4cc(F)ccc4F)c3)n2)cc1Cl,< 100
9,NS(=O)(=O)CCc1cccc(Nc2nccc(-c3scnc3-c3cccc(NC(=O)c4cc(F)ccc4F)c3)n2)c1,< 100
10,CN(C)CCOc1cccc(Nc2nccc(-c3scnc3-c3cccc(NC(=O)c4cc(F)ccc4F)c3)n2)c1,< 100
11,Nc1nc(-c2cccc(NC(=O)C3CCCCC3)c2)c(-c2ccnc(Nc3cccc(-c4cnco4)c3)n2)s1,< 100
12,CN1CCc2ccc(Nc3nccc(-c4sc(NCCCN5CCOCC5)nc4-c4cccc(NC(=O)c5c(F)cccc5F)c4)n3)cc2C1,< 100
13,COc1ccc(Nc2nccc(-c3sc(N)nc3-c3cccc(NC(=O)c4c(F)cccc4F)c3)n2)cc1F,< 100
14,CN(C)CCOc1ccc(Nc2nccc(-c3sc(N)nc3-c3cccc(NC(=O)C4CCCCC4)c3)n2)cc1Cl,< 100
15,CN(C)C1Cc2ccc(Nc3nccc(-c4sc(N)nc4-c4cccc(NC(=O)c5c(F)cccc5F)c4)n3)cc2C1 (configuration not stated),< 100
16,Nc1nc(-c2cccc(C(=O)Nc3c(F)cccc3F)c2)c(-c2ccnc(Nc3cccc(CN4CCCC4)c3)n2)s1,< 100
17,CCNc1nc(-c2cccc(NC(=O)C3CC3)c2)c(-c2ccnc(Nc3ccc(OCCN4CCCC4)c(Cl)c3)n2)s1,< 100
18,CN(C)CCOc1ccc(Nc2nccc(-c3sc(N)nc3-c3cccc(OCc4ccccc4)c3)n2)cc1Cl,< 100
19,Cc1nc(-c2cccc(NC(=O)c3c(F)cccc3F)c2)c(-c2ccnc(Nc3ccc(OC4CCN(C(=O)OCc5ccccc5)CC4)c(F)c3)n2)s1,< 100

row,SMILES,IC50 [nM]
1,CN(C)Cc1cccc(Nc2nccc(-c3scnc3-c3cccc(NC(=O)c4c(F)cccc4F)c3)n2)c1,< 100
2,Nc1nc(-c2cccc(OCc3ccccc3)c2)c(-c2ccnc(Nc3cccc(-c4cnco4)c3)n2)s1,< 100
3,O=C1COc2ccc(Nc3nccc(-c4scnc4-c4cccc(NC(=O)c5cc(F)ccc5F)c4)n3)cc2N1,< 100
4,Cc1nc(-c2cccc(NC(=O)c3cccnc3F)c2)c(-c2ccnc(Nc3ccc4c(c3)CN(C)CC4)n2)s1,< 100
5,CCc1nc(-c2cccc(NC(=O)c3c(F)cccc3F)c2)c(-c2ccnc(Nc3cccc(CN4CCCC4)c3)n2)s1,< 100
6,CN(C)c1nc(-c2cccc(NC(=O)c3c(F)cccc3F)c2)c(-c2ccnc(Nc3cccc(CN4CCCC4)c3)n2)s1,< 100
7,Cc1cc(-c2sc(N)nc2-c2cccc(NC(=O)c3c(F)cccc3F)c2)nc(Nc2cccc(OCCN(C)C)c2)n1,< 100
8,CS(=O)(=O)Cc1ccc(Nc2nccc(-c3sc(N)nc3-c3cccc(NC(=O)c4c(F)cccc4F)c3)n2)cc1,< 100
9,CCc1nc(-c2cccc(NC(=O)c3c(F)cccc3F)c2)c(-c2ccnc(Nc3ccc(N4CCC(N5CCCCC5)CC4)c(F)c3)n2)s1,< 100
10,CNc1nc(-c2cccc(NC(=O)c3c(F)cccc3F)c2)c(-c2ccnc(Nc3cccc(CN4CCCC4)c3)n2)s1,< 100
11,CC(C)(C)c1nc(-c2cccc(NC(=O)c3c(F)cccc3F)c2)c(-c2ccnc(Nc3cccc(CN4CCCC4)c3)n2)s1,< 100
12,O=C(Nc1cccc(-c2nc(NCCN3CCOCC3)sc2-c2ccnc(Nc3ccc4c(c3)CNCC4)n2)c1)c1c(F)cccc1F,< 100
13,Cc1nc(-c2cccc(NC(=O)c3c(F)cccc3F)c2)c(-c2ccnc(Nc3cccc(CN4CCCC4)c3)n2)s1,< 100
14,Cc1nc(-c2cccc(NC(=O)c3c(F)cccc3F)c2)c(-c2ccnc(Nc3cccc(F)c3)n2)s1,< 100
15,Nc1nc(-c2cccc(NC(=O)c3cc(F)ccc3F)c2)c(-c2ccnc(Nc3ccc4c(c3)CNCC4)n2)s1,< 100
16,CC(=O)N1CCC(Oc2ccc(Nc3nccc(-c4sc(C)nc4-c4cccc(NC(=O)c5c(F)cccc5F)c4)n3)cc2F)CC1,< 100
17,COc1ccc(Nc2nccc(-c3sc(NCCN4CCOCC4)nc3-c3cccc(NC(=O)c4cc(F)ccc4F)c3)n2)cc1F,< 100
18,CS(=O)(=O)Cc1ccc(Nc2nccc(-c3scnc3-c3cccc(NC(=O)c4c(F)cccc4F)c3)n2)cc1,< 100

# Second part, the molecule after the results:
row,IC50 [nM],SMILES
1,< 100,CN(C)CCOc1ccc(Nc2nccc(-c3sc(N)nc3-c3cccc(C(=O)Nc4c(F)cccc4F)c3)n2)cc1Cl
2,< 100,CC(C)c1nc(-c2cccc(NC(=O)c3c(F)cccc3F)c2)c(-c2ccnc(Nc3ccc(OCCN4CCCC4)c(Cl)c3)n2)s1
3,< 100,CN(C)CCOc1ccc(Nc2nccc(-c3sc(-c4ccc(O)cc4)nc3-c3cccc(NC(=O)c4c(F)cccc4F)c3)n2)cc1Cl
4,< 100,Cc1nc(-c2cccc(NC(=O)c3c(F)cccc3F)c2)c(-c2ccnc(Nc3ccc(OCCN4CCCC4)c(Cl)c3)n2)s1
5,< 100,CN1CCc2ccc(Nc3nccc(-c4sc(N5CCCC5)nc4-c4cccc(NC(=O)c5c(F)cccc5F)c4)n3)cc2C1
6,< 100,CN(C)CCOc1ccc(Nc2nccc(-c3sc(N4CCN(C)CC4)nc3-c3cccc(NC(=O)c4c(F)cccc4F)c3)n2)cc1Cl
7,< 100,O=C(Nc1cccc(-c2nc(CF)sc2-c2ccnc(Nc3ccc(OCCN4CCCC4)c(F)c3)n2)c1)c1c(F)cccc1F
8,< 100,Cc1nc(-c2cccc(NC(=O)c3c(F)cccc3F)c2)c(-c2ccnc(Nc3ccc(OCCN(C)C)c(F)c3)n2)s1
9,< 100,CC(C)c1nc(-c2cccc(NC(=O)c3c(F)cccc3F)c2)c(-c2ccnc(Nc3cccc(OCCN(C)C)c3)n2)s1
10,< 100,CN(C)CCOc1ccc(Nc2nccc(-c3sc(N)nc3-c3cccc(NC(=O)c4c(F)cccc4F)c3)n2)cc1Cl
11,< 100,CN1CCc2ccc(Nc3nccc(-c4sc(N(C)C)nc4-c4cccc(NC(=O)c5c(F)cccc5F)c4)n3)cc2C1
12,< 100,Cc1cccc(C(=O)Nc2cccc(-c3nc(C)sc3-c3ccnc(Nc4ccc(OCCN(C)C)c(Cl)c4)n3)c2)c1
13,< 100,CN(C)CCOc1ccc(Nc2nccc(-c3sc(N)nc3-c3cc(NC(=O)c4c(F)cccc4F)ccc3F)n2)cc1Cl
14,< 100,O=C(Nc1cccc(-c2nc(CO)sc2-c2ccnc(Nc3ccc(OCCN4CCCC4)c(F)c3)n2)c1)c1c(F)cccc1F
15,< 100,CNc1nc(-c2cccc(NC(=O)c3c(F)cccc3F)c2)c(-c2ccnc(Nc3ccc(OCCN(C)C)c(Cl)c3)n2)s1
16,< 100,CCc1nc(-c2cccc(NC(=O)c3c(F)cccc3F)c2)c(-c2ccnc(Nc3ccc(OCCN4CCCC4)c(Cl)c3)n2)s1
17,< 100,Cc1nc(-c2cccc(NC(=O)c3c(F)cccc3F)c2)c(-c2ccnc(Nc3ccc(OCCN(C)C)c(Cl)c3)n2)s1
18,< 100,CN(C)c1nc(-c2cccc(NC(=O)c3c(F)cccc3F)c2)c(-c2ccnc(Nc3ccc(N4CCOCC4)c(Cl)c3)n2)s1
19,< 100,COc1ccc(Nc2nccc(-c3scnc3-c3cccc(NC(=O)c4c(F)cccc4F)c3)n2)cc1N1CCN(C)CC1
20,< 100,O=C(Nc1cccc(-c2nc(NC3CC3)sc2-c2ccnc(Nc3ccc(OCCN4CCCC4)c(F)c3)n2)c1)c1c(F)cccc1F
